{"source": "paper PMC6407913", "about": "“DREADD Agonist 21 Is an Effective Agonist for Muscarinic-Based DREADDs in Vitro and in Vivo” (ACS Pharmacology & Translational Science, 2018)", "format_in_all_cases": "cell-based", "key": {"[1]": {"biological_target": "T1, 318 nonolfactory human GPCRs (Homo sapiens, UniProt O00155)", "T1 construct": "expressed in transfected cells; host or cells: HTLA cells, transient", "conditions": "GPR25; C21 5 µM"}, "[2]": {"biological_target": "T2, 318 nonolfactory human GPCRs (Homo sapiens, UniProt O15552)", "T2 construct": "expressed in transfected cells; host or cells: HTLA cells, transient", "conditions": "FFA2; C21 5 µM"}, "[3]": {"biological_target": "318 nonolfactory human GPCRs (Homo sapiens, UniProt O95977)", "conditions": "S1PR4; C21 5 µM"}, "[4]": {"biological_target": "318 nonolfactory human GPCRs (Homo sapiens, UniProt P07550)", "conditions": "ADRB2; C21 5 µM"}, "[5]": {"biological_target": "318 nonolfactory human GPCRs (Homo sapiens, UniProt P14416)", "sequence (P14416 whole entry)": "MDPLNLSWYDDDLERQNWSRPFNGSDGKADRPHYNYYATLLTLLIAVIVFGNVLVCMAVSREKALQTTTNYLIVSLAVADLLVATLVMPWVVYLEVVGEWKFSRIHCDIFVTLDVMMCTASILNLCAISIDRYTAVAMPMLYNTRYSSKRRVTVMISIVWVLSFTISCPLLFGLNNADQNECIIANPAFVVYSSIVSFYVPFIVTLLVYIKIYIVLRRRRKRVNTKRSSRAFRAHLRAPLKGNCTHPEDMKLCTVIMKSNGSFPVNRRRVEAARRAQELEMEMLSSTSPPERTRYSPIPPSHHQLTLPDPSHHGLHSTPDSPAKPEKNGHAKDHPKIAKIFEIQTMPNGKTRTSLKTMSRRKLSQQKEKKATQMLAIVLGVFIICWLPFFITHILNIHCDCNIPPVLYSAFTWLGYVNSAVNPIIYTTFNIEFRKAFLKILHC", "conditions": "DRD2; C21 5 µM"}, "[6]": {"biological_target": "318 nonolfactory human GPCRs (Homo sapiens, UniProt P21728)", "sequence (P21728 whole entry)": "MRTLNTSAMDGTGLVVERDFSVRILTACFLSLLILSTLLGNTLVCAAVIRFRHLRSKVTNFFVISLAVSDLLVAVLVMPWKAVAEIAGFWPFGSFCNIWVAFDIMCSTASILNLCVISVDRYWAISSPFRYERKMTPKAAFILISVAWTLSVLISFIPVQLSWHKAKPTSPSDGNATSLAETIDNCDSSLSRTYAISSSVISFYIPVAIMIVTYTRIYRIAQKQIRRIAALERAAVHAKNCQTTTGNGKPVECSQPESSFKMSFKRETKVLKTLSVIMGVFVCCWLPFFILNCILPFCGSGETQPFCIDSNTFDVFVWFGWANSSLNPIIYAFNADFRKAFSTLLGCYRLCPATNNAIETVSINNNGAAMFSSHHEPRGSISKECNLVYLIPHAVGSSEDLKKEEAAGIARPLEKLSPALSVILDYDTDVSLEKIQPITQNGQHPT", "conditions": "DRD1; C21 5 µM"}, "[7]": {"biological_target": "318 nonolfactory human GPCRs (Homo sapiens, UniProt P21917)", "conditions": "DRD4; C21 5 µM"}, "[8]": {"biological_target": "318 nonolfactory human GPCRs (Homo sapiens, UniProt P25025)", "conditions": "CXCR2; C21 5 µM"}, "[9]": {"biological_target": "T3, 318 nonolfactory human GPCRs (Homo sapiens, UniProt P25106)", "T3 construct": "expressed in transfected cells; host or cells: HTLA cells, transient", "conditions": "CXCR7; C21 5 µM"}, "[10]": {"biological_target": "318 nonolfactory human GPCRs (Homo sapiens, UniProt P28223)", "conditions": "HTR2A; C21 5 µM"}, "[11]": {"biological_target": "T4, 318 nonolfactory human GPCRs (Homo sapiens, UniProt P28336)", "T4 construct": "expressed in transfected cells; host or cells: HTLA cells, transient", "T4 sequence (P28336 whole entry)": "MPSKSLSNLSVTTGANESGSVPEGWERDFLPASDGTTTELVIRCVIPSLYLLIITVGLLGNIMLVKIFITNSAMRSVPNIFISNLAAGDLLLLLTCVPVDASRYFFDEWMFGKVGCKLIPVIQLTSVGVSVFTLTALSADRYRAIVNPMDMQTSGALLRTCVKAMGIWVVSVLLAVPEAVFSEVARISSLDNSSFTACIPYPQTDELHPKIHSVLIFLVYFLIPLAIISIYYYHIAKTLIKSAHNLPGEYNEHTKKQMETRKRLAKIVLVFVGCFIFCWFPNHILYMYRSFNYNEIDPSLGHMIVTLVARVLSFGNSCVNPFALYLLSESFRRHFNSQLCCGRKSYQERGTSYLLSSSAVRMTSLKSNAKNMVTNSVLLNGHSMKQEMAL", "conditions": "NMBR; C21 5 µM"}, "[12]": {"biological_target": "T5, 318 nonolfactory human GPCRs (Homo sapiens, UniProt P30939)", "T5 construct": "expressed in transfected cells; host or cells: HTLA cells, transient", "conditions": "HTR1F; C21 5 µM"}, "[13]": {"biological_target": "318 nonolfactory human GPCRs (Homo sapiens, UniProt P31391)", "conditions": "SSTR4; C21 5 µM"}, "[14]": {"biological_target": "318 nonolfactory human GPCRs (Homo sapiens, UniProt P32238)", "conditions": "CCKAR; C21 5 µM"}, "[15]": {"biological_target": "T6, 318 nonolfactory human GPCRs (Homo sapiens, UniProt P32245)", "T6 construct": "expressed in transfected cells; host or cells: HTLA cells, transient", "conditions": "MC4R; C21 5 µM"}, "[16]": {"biological_target": "T7, 318 nonolfactory human GPCRs (Homo sapiens, UniProt P34969)", "T7 construct": "expressed in transfected cells; host or cells: HTLA cells, transient", "T7 sequence (P34969 whole entry)": "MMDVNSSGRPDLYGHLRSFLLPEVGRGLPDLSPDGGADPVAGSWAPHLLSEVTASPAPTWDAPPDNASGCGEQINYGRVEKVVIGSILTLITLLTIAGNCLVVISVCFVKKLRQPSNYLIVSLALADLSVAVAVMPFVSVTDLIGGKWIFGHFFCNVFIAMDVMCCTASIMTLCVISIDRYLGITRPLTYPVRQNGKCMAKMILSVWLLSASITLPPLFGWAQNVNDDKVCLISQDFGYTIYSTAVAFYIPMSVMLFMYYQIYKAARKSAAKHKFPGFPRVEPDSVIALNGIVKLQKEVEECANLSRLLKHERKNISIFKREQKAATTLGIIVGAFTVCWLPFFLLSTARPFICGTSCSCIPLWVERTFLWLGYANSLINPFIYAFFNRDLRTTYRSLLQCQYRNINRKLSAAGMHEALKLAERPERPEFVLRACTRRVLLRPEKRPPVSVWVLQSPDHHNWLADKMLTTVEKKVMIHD", "conditions": "HTR7; C21 5 µM"}, "[17]": {"biological_target": "T8, 318 nonolfactory human GPCRs (Homo sapiens, UniProt P41231)", "T8 construct": "expressed in transfected cells; host or cells: HTLA cells, transient", "conditions": "P2RY2; C21 5 µM"}, "[18]": {"biological_target": "T9, 318 nonolfactory human GPCRs (Homo sapiens, UniProt P43115)", "T9 construct": "expressed in transfected cells; host or cells: HTLA cells, transient", "T9 sequence (P43115 whole entry)": "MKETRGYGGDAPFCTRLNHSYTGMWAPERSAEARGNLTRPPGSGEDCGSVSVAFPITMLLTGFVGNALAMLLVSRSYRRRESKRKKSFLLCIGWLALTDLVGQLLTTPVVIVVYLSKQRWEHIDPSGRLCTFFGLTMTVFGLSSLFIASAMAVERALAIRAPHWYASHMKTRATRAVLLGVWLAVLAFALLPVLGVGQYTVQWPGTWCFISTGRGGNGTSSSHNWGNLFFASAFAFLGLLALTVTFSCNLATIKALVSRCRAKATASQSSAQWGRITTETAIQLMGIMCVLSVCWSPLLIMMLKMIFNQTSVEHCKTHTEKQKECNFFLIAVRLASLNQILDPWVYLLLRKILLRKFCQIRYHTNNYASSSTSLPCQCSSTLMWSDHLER", "conditions": "PTGER3; C21 5 µM"}, "[19]": {"biological_target": "318 nonolfactory human GPCRs (Homo sapiens, UniProt P47872)", "conditions": "SCTR; C21 5 µM"}, "[20]": {"biological_target": "T10, 318 nonolfactory human GPCRs (Homo sapiens, UniProt P60893)", "T10 construct": "expressed in transfected cells; host or cells: HTLA cells, transient", "conditions": "GPR85; C21 5 µM"}, "[21]": {"biological_target": "T11, 318 nonolfactory human GPCRs (Homo sapiens, UniProt Q13639)", "T11 construct": "expressed in transfected cells; host or cells: HTLA cells, transient", "conditions": "HTR4; C21 5 µM"}, "[22]": {"biological_target": "T12, 318 nonolfactory human GPCRs (Homo sapiens, UniProt Q14416)", "T12 construct": "expressed in transfected cells; host or cells: HTLA cells, transient", "T12 sequence (Q14416 19-872)": "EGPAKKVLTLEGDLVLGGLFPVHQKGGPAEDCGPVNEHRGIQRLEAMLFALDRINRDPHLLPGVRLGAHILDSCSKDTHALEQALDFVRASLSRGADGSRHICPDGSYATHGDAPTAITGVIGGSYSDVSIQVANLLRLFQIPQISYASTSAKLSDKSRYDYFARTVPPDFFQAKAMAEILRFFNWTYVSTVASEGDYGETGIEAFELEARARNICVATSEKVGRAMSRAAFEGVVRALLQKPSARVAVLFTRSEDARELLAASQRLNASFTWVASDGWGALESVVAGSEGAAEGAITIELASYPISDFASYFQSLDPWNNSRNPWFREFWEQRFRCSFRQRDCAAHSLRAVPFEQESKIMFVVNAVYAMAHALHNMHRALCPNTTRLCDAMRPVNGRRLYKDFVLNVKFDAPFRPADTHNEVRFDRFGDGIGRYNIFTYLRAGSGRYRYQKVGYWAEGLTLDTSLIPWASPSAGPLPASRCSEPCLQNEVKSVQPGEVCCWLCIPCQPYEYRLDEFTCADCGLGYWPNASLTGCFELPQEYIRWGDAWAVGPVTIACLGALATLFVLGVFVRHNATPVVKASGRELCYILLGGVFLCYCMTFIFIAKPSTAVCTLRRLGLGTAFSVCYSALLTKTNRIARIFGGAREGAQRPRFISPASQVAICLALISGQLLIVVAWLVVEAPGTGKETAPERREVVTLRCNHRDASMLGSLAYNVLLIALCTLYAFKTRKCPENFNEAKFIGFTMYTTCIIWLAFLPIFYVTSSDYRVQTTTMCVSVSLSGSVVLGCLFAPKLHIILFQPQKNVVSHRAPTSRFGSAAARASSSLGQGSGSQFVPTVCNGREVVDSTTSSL", "conditions": "GMR2; C21 5 µM"}, "[23]": {"biological_target": "T13, 318 nonolfactory human GPCRs (Homo sapiens, UniProt Q16538)", "T13 construct": "expressed in transfected cells; host or cells: HTLA cells, transient", "conditions": "GPR162; C21 5 µM"}, "[24]": {"biological_target": "T14, 318 nonolfactory human GPCRs (Homo sapiens, UniProt Q8NDV2)", "T14 construct": "expressed in transfected cells; host or cells: HTLA cells, transient", "T14 sequence (Q8NDV2 whole entry)": "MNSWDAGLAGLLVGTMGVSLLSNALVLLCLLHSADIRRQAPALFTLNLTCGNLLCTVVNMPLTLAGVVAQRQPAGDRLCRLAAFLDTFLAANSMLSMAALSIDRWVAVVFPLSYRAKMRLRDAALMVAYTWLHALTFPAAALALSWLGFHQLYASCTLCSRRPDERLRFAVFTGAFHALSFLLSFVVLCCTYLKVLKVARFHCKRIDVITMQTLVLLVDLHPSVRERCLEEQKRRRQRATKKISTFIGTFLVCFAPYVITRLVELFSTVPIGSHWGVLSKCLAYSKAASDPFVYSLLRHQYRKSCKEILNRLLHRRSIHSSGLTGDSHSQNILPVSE", "conditions": "GPR26; C21 5 µM"}, "[25]": {"biological_target": "T15, 318 nonolfactory human GPCRs (Homo sapiens, UniProt Q8NGU9)", "T15 construct": "expressed in transfected cells; host or cells: HTLA cells, transient", "conditions": "GPR150; C21 5 µM"}, "[26]": {"biological_target": "T16, 318 nonolfactory human GPCRs (Homo sapiens, UniProt Q8WXD0)", "T16 construct": "expressed in transfected cells; host or cells: HTLA cells, transient", "conditions": "RXFP2; C21 5 µM"}, "[27]": {"biological_target": "T17, 318 nonolfactory human GPCRs (Homo sapiens, UniProt Q92633)", "T17 construct": "expressed in transfected cells; host or cells: HTLA cells, transient", "conditions": "LPAR1; C21 5 µM"}, "[28]": {"biological_target": "T18, 318 nonolfactory human GPCRs (Homo sapiens, UniProt Q96AM1)", "T18 construct": "expressed in transfected cells; host or cells: HTLA cells, transient", "T18 sequence (Q96AM1 whole entry)": "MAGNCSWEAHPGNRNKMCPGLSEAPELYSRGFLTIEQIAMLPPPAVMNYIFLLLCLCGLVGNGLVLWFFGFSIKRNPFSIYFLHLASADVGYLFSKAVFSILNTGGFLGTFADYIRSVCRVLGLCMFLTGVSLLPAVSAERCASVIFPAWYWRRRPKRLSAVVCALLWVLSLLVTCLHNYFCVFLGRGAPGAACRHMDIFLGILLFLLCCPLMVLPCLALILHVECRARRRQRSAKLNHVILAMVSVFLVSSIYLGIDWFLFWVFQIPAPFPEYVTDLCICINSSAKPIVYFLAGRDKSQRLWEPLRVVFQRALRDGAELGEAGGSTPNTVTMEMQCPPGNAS", "conditions": "MRGPRF; C21 5 µM"}, "[29]": {"biological_target": "318 nonolfactory human GPCRs (Homo sapiens, UniProt Q99500)", "conditions": "S1PR3; C21 5 µM"}, "[30]": {"biological_target": "T19, 318 nonolfactory human GPCRs (Homo sapiens, UniProt Q99677)", "T19 construct": "expressed in transfected cells; host or cells: HTLA cells, transient", "conditions": "LPA4; C21 5 µM"}, "[31]": {"biological_target": "T20, 318 nonolfactory human GPCRs (Homo sapiens, UniProt Q9BXC0)", "T20 construct": "expressed in transfected cells; host or cells: HTLA cells, transient", "conditions": "HCA1; C21 5 µM"}, "[32]": {"biological_target": "T21, 318 nonolfactory human GPCRs (Homo sapiens, UniProt Q9HBW9)", "T21 construct": "expressed in transfected cells; host or cells: HTLA cells, transient", "T21 sequence (Q9HBW9 20-690)": "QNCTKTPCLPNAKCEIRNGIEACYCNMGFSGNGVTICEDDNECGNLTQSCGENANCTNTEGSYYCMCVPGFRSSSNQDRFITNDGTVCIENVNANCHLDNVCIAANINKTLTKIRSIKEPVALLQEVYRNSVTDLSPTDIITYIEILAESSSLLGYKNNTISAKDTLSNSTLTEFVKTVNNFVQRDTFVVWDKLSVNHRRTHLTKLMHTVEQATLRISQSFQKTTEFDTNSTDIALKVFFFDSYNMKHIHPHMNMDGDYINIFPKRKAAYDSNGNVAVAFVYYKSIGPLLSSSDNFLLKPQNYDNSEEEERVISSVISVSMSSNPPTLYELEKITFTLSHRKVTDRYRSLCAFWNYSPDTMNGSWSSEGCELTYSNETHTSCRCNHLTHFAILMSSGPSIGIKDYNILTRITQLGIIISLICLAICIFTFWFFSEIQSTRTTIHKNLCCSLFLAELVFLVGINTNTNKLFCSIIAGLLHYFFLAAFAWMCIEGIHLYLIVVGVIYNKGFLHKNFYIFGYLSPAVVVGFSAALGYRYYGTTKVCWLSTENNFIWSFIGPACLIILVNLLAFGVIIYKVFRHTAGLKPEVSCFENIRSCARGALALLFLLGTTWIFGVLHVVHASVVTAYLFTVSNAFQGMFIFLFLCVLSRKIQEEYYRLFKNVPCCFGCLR", "conditions": "ELTD1; C21 5 µM"}, "[33]": {"biological_target": "T22, 318 nonolfactory human GPCRs (Homo sapiens, UniProt Q9HC97)", "T22 construct": "expressed in transfected cells; host or cells: HTLA cells, transient", "T22 sequence (Q9HC97 whole entry)": "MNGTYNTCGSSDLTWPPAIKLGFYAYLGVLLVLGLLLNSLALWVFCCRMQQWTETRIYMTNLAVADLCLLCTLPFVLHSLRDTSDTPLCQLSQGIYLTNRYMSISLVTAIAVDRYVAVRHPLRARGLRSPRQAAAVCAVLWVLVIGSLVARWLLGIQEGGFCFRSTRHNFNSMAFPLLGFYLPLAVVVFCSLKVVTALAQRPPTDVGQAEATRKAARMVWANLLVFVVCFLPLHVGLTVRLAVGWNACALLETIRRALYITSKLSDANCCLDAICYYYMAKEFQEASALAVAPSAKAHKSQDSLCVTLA", "conditions": "GPR35; C21 5 µM"}, "[34]": {"biological_target": "T23, 318 nonolfactory human GPCRs (Homo sapiens, UniProt Q9Y2T5)", "T23 construct": "expressed in transfected cells; host or cells: HTLA cells, transient", "conditions": "GPR52; C21 5 µM"}}, "note": "Several values for one entry are separate records, joined by “and”; a condition that tells them apart may be missing. Equal values may be shown once.", "data": [{"smiles": "c1ccc2c(c1)N=C(N1CCNCC1)c1ccccc1N2", "note": "[C21, 11-(1-piperazinyl)-5H-dibenzo[b,e][1,4]diazepine]", "values": [{"measurement": "FOLD OVER BASAL", "setting": "[1]", "result": "0.9 fold and 1.1 fold"}, {"measurement": "FOLD OVER BASAL", "setting": "[2]", "result": "0.9 fold and 0.8 fold and 0.6 fold"}, {"measurement": "FOLD OVER BASAL", "setting": "[3]", "result": "1.3 fold and 1 fold and 0.7 fold and 1.1 fold"}, {"measurement": "FOLD OVER BASAL", "setting": "[4]", "result": "1.2 fold and 0.8 fold"}, {"measurement": "FOLD OVER BASAL", "setting": "[5]", "result": "8.7 fold and 13.6 fold and 9.4 fold and 16.1 fold"}, {"measurement": "FOLD OVER BASAL", "setting": "[6]", "result": "0.9 fold and 0.8 fold and 0.5 fold and 0.6 fold"}, {"measurement": "FOLD OVER BASAL", "setting": "[7]", "result": "3.4 fold and 2.2 fold and 2 fold and 1.9 fold"}, {"measurement": "FOLD OVER BASAL", "setting": "[8]", "result": "0.9 fold and 1 fold"}, {"measurement": "FOLD OVER BASAL", "setting": "[9]", "result": "0.7 fold and 0.8 fold and 1.1 fold and 1.3 fold"}, {"measurement": "FOLD OVER BASAL", "setting": "[10]", "result": "0.1 fold and 0.2 fold"}, {"measurement": "FOLD OVER BASAL", "setting": "[11]", "result": "1 fold and 0.6 fold and 0.8 fold"}, {"measurement": "FOLD OVER BASAL", "setting": "[12]", "result": "1.1 fold and 1 fold and 0.8 fold"}, {"measurement": "FOLD OVER BASAL", "setting": "[13]", "result": "1.7 fold and 1.4 fold and 1.2 fold and 1.1 fold"}, {"measurement": "FOLD OVER BASAL", "setting": "[14]", "result": "1.2 fold and 0.8 fold and 0.7 fold"}, {"measurement": "FOLD OVER BASAL", "setting": "[15]", "result": "1.2 fold and 0.6 fold"}, {"measurement": "FOLD OVER BASAL", "setting": "[16]", "result": "0.9 fold and 0.8 fold and 1 fold"}, {"measurement": "FOLD OVER BASAL", "setting": "[17]", "result": "1.4 fold and 1.2 fold and 1.3 fold and 1 fold"}, {"measurement": "FOLD OVER BASAL", "setting": "[18]", "result": "0.7 fold and 1 fold and 0.5 fold and 0.9 fold"}, {"measurement": "FOLD OVER BASAL", "setting": "[19]", "result": "0.9 fold and 1 fold"}, {"measurement": "FOLD OVER BASAL", "setting": "[20]", "result": "0.8 fold and 1.2 fold and 1 fold"}, {"measurement": "FOLD OVER BASAL", "setting": "[21]", "result": "1.2 fold and 0.8 fold"}, {"measurement": "FOLD OVER BASAL", "setting": "[22]", "result": "1.3 fold and 1.2 fold and 0.7 fold and 1.1 fold"}, {"measurement": "FOLD OVER BASAL", "setting": "[23]", "result": "0.6 fold and 0.7 fold and 0.9 fold"}, {"measurement": "FOLD OVER BASAL", "setting": "[24]", "result": "1.5 fold and 0.8 fold and 1 fold and 0.9 fold"}, {"measurement": "FOLD OVER BASAL", "setting": "[25]", "result": "1.6 fold and 1.5 fold and 1.7 fold"}, {"measurement": "FOLD OVER BASAL", "setting": "[26]", "result": "1.1 fold and 0.9 fold"}, {"measurement": "FOLD OVER BASAL", "setting": "[27]", "result": "1 fold and 0.8 fold"}, {"measurement": "FOLD OVER BASAL", "setting": "[28]", "result": "1.4 fold and 1.3 fold and 1 fold and 0.7 fold"}, {"measurement": "FOLD OVER BASAL", "setting": "[29]", "result": "0.9 fold and 0.8 fold and 1 fold"}, {"measurement": "FOLD OVER BASAL", "setting": "[30]", "result": "1.2 fold and 1.1 fold and 0.8 fold"}, {"measurement": "FOLD OVER BASAL", "setting": "[31]", "result": "1.8 fold and 1.3 fold and 1.7 fold and 0.9 fold"}, {"measurement": "FOLD OVER BASAL", "setting": "[32]", "result": "0.6 fold and 0.8 fold and 1 fold and 0.7 fold"}, {"measurement": "FOLD OVER BASAL", "setting": "[33]", "result": "1 fold and 1.2 fold and 0.9 fold and 1.3 fold"}, {"measurement": "FOLD OVER BASAL", "setting": "[34]", "result": "0.8 fold and 1 fold and 0.6 fold"}]}]}
